Measurements: US7893266B2, “Detection of cancer cells in vitro using sigma-2 receptor ligands as radiotracers” (Washington University, priority 2003, dated 2011)

Tested on: EMT-6 breast tumor xenograft
Assay: MicroPET imaging studies in mice bearing EMT-6 breast tumor
Type: in vivo, Balb-c mice
Protocol: The no-carrier-added (NCA) study is on the left and the sigma receptor blocking study (1 mg/kg, i.v. YUN-143) is shown on the right.
This compound was studied in mature Balb/C mice that were implanted with EMT-6 mammary tumors. The mice were implanted in the nape of the neck 7 days prior to the study. The biodistribution study consisted of three groups: 1 hr low dose (≈6 μCi), 4 hr low dose and a 4 hr high dose (≈150 μCi). The % ID/g at 1 hr for tumor, brain, fat, blood and liver were 4.0±0.4, 0.25±0.02, 1.1±0.4, 2.1±0.3 and 5.4±0.4, respectively. At 4 hr for the low dose animals the values decreased to 1.2±0.2, 0.15±0.02, 0.3±0.2, 0.82±0.08 and 1.3±0.2, respectively. […] The activity injected into the high dose animals was enough to perform microPET® imaging studies. […] This initial study has shown that this σ2 receptor compound has a high uptake into EMT-6 mammary tumors and can be imaged non-invasively. (MicroPET® is a dedicated PET scanner designed for high resolution imaging of small laboratory animals. It is available from Concorde Microsystems, Inc. 10427 Cogdill Rd, Suite 500 Knoxville, Tenn. 37932 USA.)
MicroPET® Imaging Studies—The inventors conducted microPET® imaging studies with [^76Br]6 in Balb-c mice bearing EMT-6 breast tumor xenografts to model a living mammal afflicted with cancer.

COc1cc2c(cc1OC)CN(CCCCNC(=O)c1cc([76Br])cc(OC)c1OC)CC2 [[^76Br]6]
microPET imaging: identification of tumors (high dose animals, 1 and 2 hr, three animals): tumors were clearly identified
microPET imaging: tumor uptake, NCA study versus sigma receptor blocking study (no-carrier-added versus blocking with YUN-143 1 mg/kg i.v.): high uptake of the radiotracer in the NCA study (left image), which can be blocked with a known sigma receptor ligand
